Results from article PMC9780857 (International Journal of Molecular Sciences, 2022).
“And” between values parts separate entries of the source, which are not always exact repeats. Equal entries are not always repeated. Where two headings read alike, the source gives them in different places.

Experiments:
[1] = target: T1, hOCT2 (Homo sapiens, UniProt O15244); assay: Inhibition of hOCT2-mediated 14C-metformin uptake in transfected HEK293 cells; type: cell-based; parameters: expressed in transfected cells; host or cells: HEK293 (stably transfected); details: for inhibition at 10 µM: read-out: Inhibitory Effects (%) hOCT2 10 µM Mean; for inhibition at 100 µM: read-out: Inhibitory Effects (%) hOCT2 100 µM Mean
T1 sequence (O15244 1-555): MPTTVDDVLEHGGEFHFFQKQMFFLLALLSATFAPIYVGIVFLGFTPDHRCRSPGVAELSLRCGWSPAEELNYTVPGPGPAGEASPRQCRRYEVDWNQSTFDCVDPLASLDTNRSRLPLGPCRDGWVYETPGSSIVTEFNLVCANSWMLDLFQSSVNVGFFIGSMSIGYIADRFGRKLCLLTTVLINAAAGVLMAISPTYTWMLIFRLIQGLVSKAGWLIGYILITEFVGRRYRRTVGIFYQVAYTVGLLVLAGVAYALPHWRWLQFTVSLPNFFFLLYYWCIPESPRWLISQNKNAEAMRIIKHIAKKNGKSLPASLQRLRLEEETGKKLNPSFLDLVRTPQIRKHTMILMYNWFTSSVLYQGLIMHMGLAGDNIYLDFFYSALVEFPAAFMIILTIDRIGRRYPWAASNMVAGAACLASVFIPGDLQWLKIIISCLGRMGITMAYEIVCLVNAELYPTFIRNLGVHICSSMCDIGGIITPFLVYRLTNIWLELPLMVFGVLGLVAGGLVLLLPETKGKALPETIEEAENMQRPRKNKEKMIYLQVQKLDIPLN
Experimental: (§1) The uptake assays were performed as previously described in 24-well plates. […] After incubation, the uptake was stopped by aspirating the reaction mixture and washing the cells three times with 0.4 mL ice-cold PBS buffer. Cells were then solubilized with 0.6 mL of 1 N NaOH, overnight. The whole content of each well (0.6 mL) was transferred to a scintillation vial (Perkin Elmer). The radio-labelled amount was determined by liquid scintillation counting.
(§2) All inhibition experiments were conducted on at least two separate days in triplicate.
(§3) For screening experiments, cis-inhibition was carried out in duplicate by measuring the uptake of the labeled probe substrate in the absence and presence of 10 µM or 100 µM of the respective pesticide or drug. […] Inhibitory effects in percent were calculated from net-uptake. […]

[2] = target: T2, mOct2 (Mus musculus, UniProt O70577); assay: Inhibition of mOct2-mediated 14C-metformin uptake in transfected HEK293 cells; type: cell-based; parameters: expressed in transfected cells; host or cells: HEK293 (stably transfected); details: for inhibition at 10 µM: read-out: Inhibitory Effects (%) mOct2 10 µM Mean; for inhibition at 100 µM: read-out: Inhibitory Effects (%) mOct2 100 µM Mean
T2 sequence (O70577 1-553): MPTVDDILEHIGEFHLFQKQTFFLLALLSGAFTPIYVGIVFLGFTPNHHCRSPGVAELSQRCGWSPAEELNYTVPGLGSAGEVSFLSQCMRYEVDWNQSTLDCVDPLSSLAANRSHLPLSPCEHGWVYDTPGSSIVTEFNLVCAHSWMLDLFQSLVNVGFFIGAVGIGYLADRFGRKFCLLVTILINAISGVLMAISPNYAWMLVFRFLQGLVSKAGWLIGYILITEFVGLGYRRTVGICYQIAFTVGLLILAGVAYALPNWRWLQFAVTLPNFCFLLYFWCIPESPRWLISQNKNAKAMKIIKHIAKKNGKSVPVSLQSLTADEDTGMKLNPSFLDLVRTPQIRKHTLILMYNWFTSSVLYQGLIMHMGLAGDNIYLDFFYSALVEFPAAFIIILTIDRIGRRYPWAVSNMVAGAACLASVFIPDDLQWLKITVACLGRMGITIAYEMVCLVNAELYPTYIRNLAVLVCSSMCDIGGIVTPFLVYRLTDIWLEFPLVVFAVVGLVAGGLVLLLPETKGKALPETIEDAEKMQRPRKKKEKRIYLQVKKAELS
Experimental: as §1, §2, §3

[3] = target: T1, hOCT2; parameters: expressed in transfected cells; host or cells: HEK293 (stably transfected); method as in ref 39 (Vermeer et al.); details: ref 39 (Vermeer et al.); cited from earlier work
[4] = target: T1, hOCT2; parameters: method as in PMID 9260930; details: OCT2-overexpressing oocytes (procainamid); read-out: IC50, hOCT2-mediated TEA uptake; cited from earlier work
[5] = target: T1, hOCT2; assay: Inhibition of hOCT2-mediated 3H-MPP uptake in transfected HEK293 cells; type: cell-based; parameters: expressed in transfected cells; host or cells: HEK293 (stably transfected)
Experimental: (§4) With cDNA of hOCT2 (GeneBank: accession number: NM_003058.3) or mOct2 (NM_013667.2), stably overexpressing HEK293 cells were used for the experiments and empty vector-transfected HEK cells were used as control-HEK cells.
(§5) The uptake assays were performed as previously described in 24-well plates. Therefore, culture medium was aspirated, and each well was rinsed three times with 0.5 mL incubation buffer (HBSS supplemented with 20 mM HEPES, pH 7.4) and then incubated in 200 µL dosing solution containing ^3H-MPP or ^14C-metformin and the test compound. After incubation, the uptake was stopped by aspirating the reaction mixture and washing the cells three times with 0.4 mL ice-cold PBS buffer. Cells were then solubilized with 0.6 mL of 1 N NaOH, overnight. The whole content of each well (0.6 mL) was transferred to a scintillation vial (Perkin Elmer). The radio-labelled amount was determined by liquid scintillation counting.
(§6) […]. All inhibition experiments were conducted on at least two separate days in triplicate.
(§7) The Km and Vmax values were obtained using SigmaPlot version 13 by fitting the Michaelis–Menten equation V = Vmax*[S]/(Km + [S]), where V refers to the rate of substrate transport, Vmax refers to the maximum rate of substrate transport, [S] refers to the concentration of substrate, and Km is defined as the concentration of substrate at the half-maximal transport rate.

[6] = target: T2, mOct2; assay: Inhibition of mOct2-mediated 3H-MPP uptake in transfected HEK293 cells; type: cell-based; parameters: expressed in transfected cells; host or cells: HEK293 (stably transfected); details: read-out: IC50, mOct2-mediated MPP uptake; control inhibitor; MPP at its Km; 0.1-100 µM inhibitor
Experimental: as §4, §5, §6, §7

[7] = target: T1, hOCT2; parameters: expressed in transfected cells; host or cells: HEK293 (stably transfected); details: read-out: IC50, MPP uptake in hOCT2-HEK293 cells; HEK293; ref 28 (Hayer-Zillgen et al. 2002); cited from earlier work
[8] = system: OCT2; parameters: method as in PMID 19833842; details: OCT2-overexpressing HEK293 cells; read-out: IC50, YM155 uptake; cited from earlier work
[9] = target: T1, hOCT2; parameters: expressed in transfected cells; host or cells: HEK293 (stably transfected); details: ref 36 (Tahara et al.); read-out: Km, substrate of hOCT2; cited from earlier work
[10] = HEK293, 10 µM test compound, 1 µM [14C]metformin, 2 min, HEK293, negative = stimulation
[11] = HEK293, 100 µM test compound, 1 µM [14C]metformin, 2 min, HEK293, negative = stimulation
[12] = 10 µM test compound, 1 µM [14C]metformin, 2 min, HEK293, negative = stimulation
[13] = 100 µM test compound, 1 µM [14C]metformin, 2 min, HEK293, negative = stimulation

CC(=O)N1CCN(c2ccc(OCC3COC(Cn4ccnc4)(c4ccc(Cl)cc4Cl)O3)cc2)CC1 (stereo not shown) [Ketoconazole]
inhibition at 10 µM [1, 10]: 31%
inhibition at 100 µM [1, 11]: 87%
inhibition at 10 µM ([2]; HEK293): 49%
inhibition at 100 µM ([2]; HEK293): 87%
IC50 [3]: 890 nM

CCN1/C(=C/c2ccc3ccccc3[n+]2CC)C=Cc2ccccc21.[I-] [Decynium22]
IC50 [4]: 100 nM
Fold higher inhibitory potential on metformin uptake compared to MPP uptake, hOCT2 [1]: 7.2 fold
Inhibitory Effects (%) hOCT2 10 µM Mean [1, 12]: 67%
Inhibitory Effects (%) hOCT2 100 µM Mean [1, 13]: 96%
IC50 ([1]; read-out: IC50, hOCT2-mediated metformin uptake, control inhibitor, 350 µM metformin, 0.1-100 µM inhibitor): 2200 nM
Fold higher inhibitory potential on metformin uptake compared to MPP uptake, mOct2 [2]: 2.7 fold
Inhibitory Effects (%) mOct2 10 µM Mean [2, 12]: 72%
Inhibitory Effects (%) mOct2 100 µM Mean [2, 13]: 97%
IC50 ([2]; read-out: IC50, mOct2-mediated metformin uptake, control inhibitor, 350 µM metformin, 0.1-100 µM inhibitor): 2600 nM
Fold higher IC50 for hOCT2 than for mOct2 ([5]; MPP as substrate): 2 fold and 2.3 fold
IC50 ([5]; read-out: IC50, hOCT2-mediated MPP uptake, control inhibitor, MPP at its Km, 0.1-100 µM inhibitor): 16000 nM
IC50 [6]: 6900 nM
IC50 [7]: 1300 nM

CCN(CC)CCNC(=O)c1ccc(N)cc1 [Procainamid]
IC50 [8]: 92000 nM
inhibition at 10 µM ([1]; HEK293): -20%
inhibition at 100 µM ([1]; HEK293): -44%
inhibition at 10 µM [2, 10]: -16%
inhibition at 100 µM [2, 11]: -30%

CNC(=C[N+](=O)[O-])NCCSCc1ccc(CN(C)C)o1 [Ranitidine]
inhibition at 10 µM [1, 10]: -43%
inhibition at 100 µM [1, 11]: -33%
inhibition at 10 µM ([2]; HEK293): -37%
inhibition at 100 µM ([2]; HEK293): -16%
Km [9]: 65.2 µM
